Reference: patent publication US11629141B2, “Proteasome inhibitors and uses thereof” (CORNELL UNIVERSITY, priority 2015, dated 2023)
Entries after “also recorded” stand apart in the source; their conditions may differ. Read-outs that look alike come from different tables or passages of the source.

Assays:
P. berghei = test: Killing of P. berghei sporozoite stage in HepG2 cells; assay type: cell-based; settings: Plasmodium berghei
P. falciparum schizonts = test: Accumulation of poly-ubiquitinated proteins in P. falciparum schizonts; assay type: cell-based; settings: 4 hours post treatment
β1c = target: T1, β1c (Homo sapiens, UniProt P28072); test: Inhibition of β1c activity; assay type: biochemical; settings: no inhibition <33 μM
T1 construct: purchased Boston Biochem Inc
Protocol: (§1) The foregoing features of these AsnEDA encouraged a further round of SAR studies (Table 5) based on varying the carboxylic acid at the ethylenediamine, the N-cap at the Asn, and the side chain of the Asn, based on PKS21004. All compounds listed in the Table 5 were synthesized as described in Examples 6-77. All final compounds were confirmed by NMR and HRMS. IC50s of all compounds against β5i and β5c (Table 5), β1i, β2i, β1c and β2c were determined following a reported method (Lin et al., “N,C-Capped Dipeptides With Selectivity for Mycobacterial Proteasome Over Human Proteasomes: Role of S3 and S1Binding Pockets,” J Am Chem Soc. 135:9968-9971 (2013), which is hereby incorporated by reference in its entirety). […] The [1,1′-biphenyl]-3-carboxamide of PKS21004 was then modified with the following substituents: 4′-fluoro (PKS21026), 4′-cyano (PKS21028), 4-fluoro (PKS21196), 4,3′-difluoro (PKS21195) and 4,2′-difluoro (PKS21187).

[1] = target: T2, human immunoproteasome β5i (Homo sapiens, UniProt P28062); test: IC50 against chymotryptic β5i activity of human immunoproteasome (96-well plate, Ac-ANW-AMC); assay type: biochemical; settings: β5i; substrate Ac-ANW-AMC; read-out: IC50 Hu i-20S (Ac-ANW-AMC)
T2 construct: purchased Boston Biochem Inc
Protocol: A 96-well-plate assays were used to determine the IC50s against the chymotryptic β5 activities of the proteasomes. Both human constitutive proteasome and immunoproteasome were purchased from Boston Biochem Inc. 1 μL of 100× compound in DMSO at designated concentrations were spotted at the bottom of the wells. DMSO was used as a control. […] The hydrolysis of the substrate over time in each well was monitored at excitation 360 nm, emission 460 nm for 90 minutes. IC50s were estimated by fitting the velocities of hydrolysis against compound concentrations using PRISM. […] SDS (0.02%) was used as activator, and 0.01% BSA was used in the reaction buffer.

β1i = target: T3, β1i (Homo sapiens, UniProt P28065); test: Inhibition of β1i activity; assay type: biochemical; settings: no inhibition <33 μM
T3 construct: purchased Boston Biochem Inc
Protocol: as §1

β2i = target: T4, β2i (Homo sapiens, UniProt P40306); test: Inhibition of β2i activity; assay type: biochemical; settings: no inhibition <33 μM
T4 construct: purchased Boston Biochem Inc
Protocol: as §1

hu i-20S β5i = target: T5, hu i-20S β5i (Homo sapiens, UniProt P28062); test: Kinetic analysis, substrate titration of hu i-20S steady state velocities; assay type: biochemical
T5 construct: purchased Boston Biochem Inc
Protocol: FIGS. 1A-1E are graphs showing inhibition modality of PKS21004 against human proteasomes. Washout of c-20S from the preincubated c-20S and […] to recover the β5c activity (FIG. 1A). Substrate titration of hu i-20S (FIG. 1B) and c-20S (FIG. 1D) steady state velocities in the presence of PKS21004 at the concentrations indicated next to each curve. Data as in (FIG. 1B) were plotted double reciprocal in (FIG. 1C), and (FIG. 1D) in (FIG. 1E).
A washout experiment was used to confirm the reversibility of this class of proteasome inhibitors, as expected from their non-covalent chemistry.

Pf Gametocytes = test: Gametocyte killing assay (DilC1(5), flow cytometry); assay type: cell-based; settings: Plasmodium falciparum; NF54 peg4-tdTomato, 72 hour incubation; read-out: EC50 against Pf Gametocytes
Protocol: Asexual replication of NF54 peg4-tdTomato parasites was eliminated by treating with 50 mM GlcNAc and 20 U/mL Heparin for 3 days. NF54 peg4-tdTomato parasites then were maintained using standard culture techniques. Gametocytes were induced synchronously according to Fivelman et al., “Improved Synchronous Production of Plasmodium Falciparum Gametocytes in Vitro,” Mol Biochemo Parasitol. 154(1):119-123 (2007), which is hereby incorporated by reference in its entirety. Asexual replication was eliminated by treating with 50 mM GlcNAc for 3 days. Gametocyte killing assays were setup on days 5 and 10 in triplicate 96-well format at 1% hematocrit and 2% gametocytemia. Compounds were setup in triplicate and serially diluted 3-fold. In addition, 6 solvent controls (DMSO) were distributed evenly across the plate. Following a 72 hour incubation, Stage III-IV (Day 5-7) and Stage IV-V (Day 10-12), (start the incubation in the afternoon on Day 5 and Day 10, take out plate for assay on Day8 and Day13 afternoon) cultures were stained with 16 nM Hoechst 33342 and 50 nM DilC1(5) for 30 min at 37 C. Using a Cytek DxP12 flow cytometer, gametocytemia was determined by gating for DNA+, hemozoin-high cells and gametocyte viability was inferred based on mitochondrial membrane potential-dependent accumulation of DilC1(5) for 2000-3000 gametocytes (Tanaka et al., “Potent Plasmodium Falciparum Gametocytocidal Activity of Diaminonaphthoquinones, Lead Antimalarial Chemotypes Identified in an Antimalarial Compound Screen,” Antimicrob. Agents Chemother. 2015, 59:1389 (2015), which is hereby incorporated by reference in its entirety). Mean DilC1(5) signal was normalized to solvent control and the overall minimum and used to calculate the EC50 (FIG. 3 and Table 4).

Pf20S β5 = test: Labeling of Pf20S active subunits by activity probe MV151 in Pf lysates; assay type: biochemical, P. falciparum; settings: 1 hour with inhibitor, then MV151 (2 μM) 1 hour
Protocol: Pf lysates were incubated with inhibitors at indicated concentrations for 1 hour prior to incubation with MV151 (2 μM) for an additional hour. SDS pages were scanned on a Typhoon fluorescent scanner. […] BTZ was used as a positive control.

β2c = target: T6, β2c (Homo sapiens, UniProt Q99436); test: Inhibition of β2c activity; assay type: biochemical; settings: no inhibition <33 μM
T6 construct: purchased Boston Biochem Inc
Protocol: as §1

## CC(C)(C)NC(=O)C[C@H](NC(=O)CCc1ccccc1)C(=O)NCCNC(=O)c1cccc(-c2ccccc2)c1 [PKS21004]
P. berghei; read-out: EC50 killing of P. berghei, compound & sporozoites incubated with HepG2, media replaced after 14 hours
  EC50: 21 nM
P. berghei; compound & sporozoites incubated with HepG2, media replaced after 6 hours, read-out: EC50 killing of P. berghei, 6 hours
  EC50: 41 nM
P. berghei; sporozoites pre-treated 30 minutes on ice, added to HepG2, media replaced after 4 hours, read-out: EC50 killing of P. berghei, sporozoites pre-treated (P/T)
  EC50: 157 nM
P. falciparum schizonts
  accumulation of poly-ubiquitinated proteins: accumulation of poly-ubiquitinated proteins
β1c
  IC50 against β1c: no inhibition
[1]
  IC50: 58 nM
β1i
  IC50 against β1i: no inhibition
β2i
  IC50 against β2i: no inhibition
Hu i-20S β5i
  Ki: 77 nM
Hu i-20S β5i; fit to equation for noncompetitive inhibitors
  α for i-20S (β5i): 0.28 and ≈ 0.28
Hu i-20S β5i; with respect to substrate
  modality of inhibition of β5i: noncompetitive inhibitor
Pf Gametocytes
  EC50: 50 nM
Pf20S β5
  labeling of Pf20S β5 by MV151: block labeling; also recorded: inhibited the labeling
β2c
  IC50 against β2c: no inhibition
